In article PMC12222587, “A2B adenosine receptor-triggered intracellular calcium mobilization: Cell type-dependent involvement of Gi, Gq, Gs proteins and protein kinase C” (Purinergic Signalling, 2025):
“Also recorded” adds a separate entry of the source. Where two headings read alike, the source gives them in different places. *1 amine or outer side, *2 acyl side, *3 side chain or, on linkers, in order; H or OH if unused. Where a SMILES comes first, the peptide text is derived from it. Bridges are numbered along the chain shown (N, C = ends). [ ]: non-standard residue; d: D form. The star is where a group is joined. Leu(3R-OH,Nα-propionyl) = CCC(=O)N[C@H](C(=O)*)[C@H](O)C(C)C; X2 = CC(=O)NC(C(=O)OC(C(C)C)C(N[*:1])C(=O)[*:2])C(O)C(C)C; X1 = CC(C)[C@@H](O[*:3])[C@H](N[*:1])C(=O)[*:2]; NMeT = CN[CH](C(=O)O)[CH](C)O; dPhLac = O=C(O)[C@H](O)Cc1ccccc1; PhLac = O=C(O)[CH](O)Cc1ccccc1; NMeA = CN[CH](C)C(=O)O; NMeDha = C=C(NC)C(=O)O

Legend:
[1] = tested on: P2Y12 receptor; parameters: method as in PMID 26954502; conditions: overexpressed in CHO or 1321N1 astrocytoma cells; FR 100 nM; cited from earlier work
[2] = biological target: T1, P2Y1R (Homo sapiens, UniProt P47900); assay: Intracellular calcium mobilization, HEK293 cells, native P2Y1R (MRS2365); type: cell-based; conditions: for Effect on P2Y1R (MRS2365)-mediated calcium mobilization: Gq/11 siRNA 250 nM, PTX 200 ng/ml overnight, FR, YM 20 min before agonist; for IC50: agonist MRS2365 1 µM, read-out: IC50 to inhibit P2Y1R-mediated calcium mobilization
[3] = tested on: P2Y1 receptor; parameters: method as in PMID 26954502; conditions: FR at both 100 and 300 nM; cited from earlier work
[4] = tested on: A1AR; conditions: FR 100 nM; cited from earlier work
[5] = tested on: A1AR; conditions: CHO cells; FR 300 nM; cited from earlier work
[6] = biological target: T2, A1AR (Homo sapiens, UniProt P30542); assay: cAMP accumulation, HEK293 cells, A1AR-mediated inhibition of forskolin-stimulated cAMP (CCPA); type: cell-based
T2 construct: expressed in transfected cells
T2 sequence (P30542 1-326): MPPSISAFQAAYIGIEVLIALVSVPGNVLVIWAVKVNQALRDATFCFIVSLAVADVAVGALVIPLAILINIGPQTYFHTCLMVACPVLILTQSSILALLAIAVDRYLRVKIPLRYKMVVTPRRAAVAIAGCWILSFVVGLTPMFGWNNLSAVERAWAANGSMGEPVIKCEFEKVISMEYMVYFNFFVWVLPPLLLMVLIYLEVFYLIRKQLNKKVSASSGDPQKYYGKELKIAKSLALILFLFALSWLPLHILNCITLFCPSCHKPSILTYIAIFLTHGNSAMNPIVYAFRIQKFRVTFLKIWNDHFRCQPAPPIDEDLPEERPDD
Experimental: (§1) HEK293, T24 bladder cancer and MDA-MB-231 breast cell lines were cultured in DMEM medium containing 10% fetal bovine serum, 100 units/ml penicillin, 100 μg/ml streptomycin, and 2 μmol/ml glutamine. For the assay of 3′,5′-cyclic adenosine monophosphate (cAMP), cells were plated in 96-well (4 × 10^4 cells/well) clear plates in 100 μl of medium overnight. Cell culture medium was then replaced with 80 µl HBSS buffer containing 20 mM HEPES, phosphodiesterase inhibitor rolipram (10 μM), and 3 units/ml adenosine deaminase (Worthington Biochemical, Lakewood, NJ, USA) for 30 min followed by agonist addition to the mixture, which was then incubated for 20 min. The treatment of YM or FR was 20 min before agonist addition.

[7] = tested on: M3 acetylcholine receptor; parameters: method as in PMID 26954502; conditions: FR at both 100 and 300 nM; cited from earlier work
[8] = biological target: T1, P2Y1R; assay: Intracellular calcium mobilization, T24 bladder cancer cells, native P2Y1R (MRS2365); type: cell-based; conditions: for Effect on native P2Y1R (MRS2365)-triggered calcium mobilization: YM 300 nM, FR 300 nM, PTX 200 ng/ml overnight
[9] = biological target: T3, A2BAR (Homo sapiens, UniProt P29275); assay: Intracellular calcium mobilization, T24 bladder cancer cells, native A2BAR (NECA); type: cell-based
T3 sequence (P29275 1-332): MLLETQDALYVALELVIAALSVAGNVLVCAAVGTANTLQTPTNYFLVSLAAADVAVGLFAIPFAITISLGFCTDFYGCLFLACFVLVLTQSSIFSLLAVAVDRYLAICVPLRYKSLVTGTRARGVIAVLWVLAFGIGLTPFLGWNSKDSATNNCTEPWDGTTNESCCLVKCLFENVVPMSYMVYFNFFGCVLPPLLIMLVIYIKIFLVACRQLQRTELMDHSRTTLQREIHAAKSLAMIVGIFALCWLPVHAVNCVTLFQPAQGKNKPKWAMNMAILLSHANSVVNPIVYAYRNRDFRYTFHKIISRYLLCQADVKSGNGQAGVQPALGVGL

[10] = biological target: T4, A2AAR (Homo sapiens, UniProt P29274); assay: cAMP accumulation, HEK293 cells, A2AAR-mediated stimulation (CGS21680); type: cell-based
T4 construct: host or cells: HEK293
Experimental: as §1

[11] = tested on: A2B adenosine receptor; parameters: method as in PMID 26954502; conditions: CHO cells; FR 300 nM; cited from earlier work
[12] = biological target: β2-adrenergic receptor (Homo sapiens, UniProt P07550); assay: Intracellular calcium mobilization, T24 bladder cancer cells, endogenous β2-adrenergic receptor; type: cell-based; conditions: T24 cells; for Effect on formoterol-induced calcium mobilization (β2-adrenergic receptor): PTX 200 ng/ml, CTX 500 ng/ml
[13] = tested on: P2Y1 receptor; parameters: method as in PMID 26954502; conditions: FR at 100 and 300 nM; cited from earlier work
[14] = biological target: T2, A1AR; assay: Intracellular calcium mobilization, HEK293 cells expressing recombinant A1AR (CCPA); type: cell-based; conditions: for Effect on A1AR (CCPA)-mediated calcium mobilization: HEK293 cells overexpressing A1AR, Gq/11 siRNA 250 nM, PTX 200 ng/ml overnight, FR, YM 20 min before agonist; for IC50: HEK293 cells, overexpressed A1AR, agonist CCPA 1 µM, read-out: IC50 for inhibition of A1AR-mediated calcium mobilization
[15] = tested on: M3 acetylcholine receptor; parameters: method as in PMID 26954502; conditions: FR at 100 and 300 nM; cited from earlier work
[16] = tested on: A1AR; conditions: FR 100 nM; small but significant; cited from earlier work
[17] = tested on: A1AR; conditions: overexpressed in CHO or 1321N1 astrocytoma cells; FR 100 nM; cited from earlier work
[18] = tested on: M2 muscarinic acetylcholine receptor; conditions: overexpressed in CHO or 1321N1 astrocytoma cells; FR 100 nM; cited from earlier work
[19] = tested on: P2Y1R; conditions: 1321N1 astrocytoma (P2Y1-overexpressing); ref Gao and Jacobson, 2017 [29]; cited from earlier work
[20] = tested on: HMC-1 cells; conditions: HMC-1 cells; ref Feoktistov et al., 1995 [30]; cited from earlier work
[21] = tested on: LPA receptor; assay: Intracellular calcium mobilization, HEK293 cells, endogenous LPA receptor; type: cell-based, human; conditions: YM 300 nM
[22] = tested on: A1AR; assay: Calcium increase, CHO cells expressing recombinant A1AR (CCPA); type: cell-based; conditions: recombinant A1 receptor, CCPA 1 µM, read-out: IC50 in inhibiting the effect of CCPA (Ca2+ increase)
[23] = tested on: M2 muscarinic receptor; assay: Calcium increase, CHO cells expressing recombinant M2 muscarinic receptor (carbachol); type: cell-based; conditions: carbachol 10 µM, read-out: IC50 in inhibiting the effect of carbachol (Ca2+ increase)
[24] = biological target: T3, A2BAR; parameters: method as in PMID 24853985; conditions: T24 cells; cited from earlier work
[25] = T24 cells, YM 300 nM, FR 300 nM, PTX 200 ng/ml, CTX 500 ng/ml overnight, other inhibitors 20 min before NECA

T1 sequence (P47900 whole entry): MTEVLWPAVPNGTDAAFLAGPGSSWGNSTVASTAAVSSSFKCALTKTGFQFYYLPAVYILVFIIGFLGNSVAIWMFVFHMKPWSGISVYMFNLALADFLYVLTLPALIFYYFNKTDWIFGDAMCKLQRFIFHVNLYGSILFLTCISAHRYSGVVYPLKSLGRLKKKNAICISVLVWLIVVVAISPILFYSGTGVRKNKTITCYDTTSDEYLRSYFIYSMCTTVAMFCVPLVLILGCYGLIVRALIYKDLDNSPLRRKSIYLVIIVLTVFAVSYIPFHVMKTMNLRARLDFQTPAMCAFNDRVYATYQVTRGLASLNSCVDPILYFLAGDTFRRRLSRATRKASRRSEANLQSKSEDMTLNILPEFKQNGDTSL
T4 sequence (P29274 whole entry): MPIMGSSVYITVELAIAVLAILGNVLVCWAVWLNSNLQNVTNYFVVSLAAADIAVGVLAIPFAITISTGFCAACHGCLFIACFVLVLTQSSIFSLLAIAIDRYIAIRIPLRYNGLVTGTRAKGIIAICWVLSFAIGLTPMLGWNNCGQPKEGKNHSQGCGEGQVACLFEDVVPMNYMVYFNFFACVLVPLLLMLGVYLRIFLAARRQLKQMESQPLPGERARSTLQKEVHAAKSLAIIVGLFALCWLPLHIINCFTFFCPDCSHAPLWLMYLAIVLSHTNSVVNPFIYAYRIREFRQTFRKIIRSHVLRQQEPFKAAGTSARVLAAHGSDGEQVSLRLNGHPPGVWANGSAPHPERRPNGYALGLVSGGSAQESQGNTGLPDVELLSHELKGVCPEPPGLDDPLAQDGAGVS

Compound: C=C1C(=O)N[C@@H](C)C(=O)N(C)[C@@H](C)C(=O)N[C@@H]([C@H](OC(=O)[C@@H](NC(=O)CC)[C@H](O)C(C)C)C(C)C)C(=O)N(C)[C@@H]([C@@H](C)OC)C(=O)O[C@H](C(C)C)[C@H](NC(C)=O)C(=O)O[C@H](Cc2ccccc2)C(=O)N1C [FR, FR900359] (Ac-[X1][dPhLac][NMeDha]A[NMeA][X1](Leu(3R-OH,Nα-propionyl))[NMeT](Me); ester 1-C)
- Effect on Giβγ-mediated calcium mobilization, or IP1 accumulation, upon P2Y12R activation [1]: nearly complete inhibition
- Effect on P2Y1R (MRS2365)-mediated calcium mobilization [2]: inhibited; also recorded: fully sensitive
- IC50 [2]: 13.2 ± 3.2 nM
- Effect on ERK1/2 activity triggered by the P2Y1 receptor [3]: only partially inhibited
- Effect on A1AR-mediated Akt1/2/3 phosphorylation [4]: no effect
- Effect on A1AR-Gαi-mediated inhibition of forskolin-stimulated cAMP accumulation [5]: no effect
- Effect on A1AR-mediated inhibition of cAMP accumulation [6]: did not affect
- Effect on ERK1/2 activity triggered by the M3 acetylcholine receptor [7]: only partially inhibited
- Effect on native P2Y1R (MRS2365)-triggered calcium mobilization [8]: completely inhibited
- Effect on native A2BAR (NECA)-triggered calcium mobilization [9, 25]: FR and YM insensitive (4); Gαq/11 siRNA insensitive (4)
- Effect on A2AAR-mediated stimulation of cAMP accumulation [10]: did not affect
- Effect on A2BAR-Gαs-mediated cAMP accumulation [11]: no effect
- Effect on isoproterenol-induced calcium mobilization (β2-adrenergic receptor) ([12]; FR 300 nM, PMA 1 µM): diminished
- Effect on formoterol-induced calcium mobilization (β2-adrenergic receptor) ([12]; FR 300 nM, YM 1 µM, PMA 1 µM): diminished
- Effect on calcium response triggered by the P2Y1 receptor [13]: completely inhibited
- Effect on A1AR (CCPA)-mediated calcium mobilization [14]: inhibited; also recorded: YM and FR – fully sensitive (2)
- IC50 [14]: 8.66 ± 3.23 nM
- Effect on calcium response triggered by the M3 acetylcholine receptor [15]: completely inhibited
- Inhibition of A1AR-mediated ERK1/2 activity [16]: < 30%
- Effect on Giβγ-mediated calcium mobilization, or IP1 accumulation, upon A1AR activation [17]: nearly complete inhibition
- Effect on Giβγ-mediated calcium mobilization, or IP1 accumulation, upon M2 receptor activation [18]: nearly complete inhibition

Compound: Pertussis toxin [PTX]
- Effect on P2Y1R (MRS2365)-mediated calcium mobilization [2]: no effect; also recorded: PTX insensitive (1)
- Effect on A1AR-mediated Akt1/2/3 phosphorylation [4]: completely inhibited
- Sensitivity of P2Y1R calcium mobilization to modulator [19]: PTX insensitive
- Effect on native P2Y1R (MRS2365)-triggered calcium mobilization [8]: no effect; also recorded: PTX insensitive (5)
- Effect on native A2BAR (NECA)-triggered calcium mobilization [9, 25]: diminished; also recorded: PTX sensitive (5)
- Sensitivity of NECA-induced Ca2+ increase to toxin [20]: ^b NECA-induced Ca^2+ increase in HMC-1 cells was insensitive to CTX and PTX, Feoktistov et al., 1995 [30]
- Effect on formoterol-induced calcium mobilization (β2-adrenergic receptor) ([12]; FR 300 nM, YM 1 µM, PMA 1 µM): did not produce significant attenuation; also recorded: PTX not sensitive (6)
- Effect on A1AR (CCPA)-mediated calcium mobilization [14]: completely inhibited; also recorded: PTX sensitive (1)

Compound: CSc1nc(N)c2ncn([C@H]3[C@H](O)[C@H](O)[C@]4(COP(=O)(O)OP(=O)(O)O)C[C@H]34)c2n1 [MRS2365]
- EC50 ([8]; absence of PTX): 1.38 ± 0.26 nM

Compound: C=C1C(=O)NC(C)C(=O)N(C)C(C)C(=O)NC(C(OC(=O)C(NC(C)=O)C(O)C(C)C)C(C)C)C(=O)N(C)C(C(C)OC)C(=O)OC(C)C(NC(C)=O)C(=O)OC(Cc2ccccc2)C(=O)N1C (stereo not shown) [YM, YM254890] (Ac-T[PhLac][NMeDha]A[NMeA][X2][NMeT](Me); ester 1-C; configuration not given here)
- Effect on LPA-induced intracellular calcium mobilization [21]: completely inhibited
- Effect on P2Y1R (MRS2365)-mediated calcium mobilization [2]: inhibited; also recorded: fully sensitive
- IC50 [2]: 12.8 ± 4.1 nM
- Effect on A1AR-mediated inhibition of cAMP accumulation [6]: did not affect
- Sensitivity of P2Y1R calcium mobilization to modulator [19]: YM sensitive
- Effect on native P2Y1R (MRS2365)-triggered calcium mobilization [8]: completely inhibited; also recorded: YM – fully sensitive (4)
- IC50 [22]: 11.6 nM
- Effect on native A2BAR (NECA)-triggered calcium mobilization [9, 25]: little if any effect; also recorded: FR and YM insensitive (4); Gαq/11 siRNA insensitive (4)
- Effect on A2AAR-mediated stimulation of cAMP accumulation [10]: did not affect
- Effect on formoterol-induced calcium mobilization (β2-adrenergic receptor) ([12]; FR 300 nM, YM 1 µM, PMA 1 µM): YM – partially sensitive (6)
- Inhibition of the maximum effect (Emax) of formoterol, calcium mobilization ([12]; YM 1 µM): 78%
- Effect on A1AR (CCPA)-mediated calcium mobilization [14]: inhibited; also recorded: YM and FR – fully sensitive (2)
- IC50 [14]: 12.9 ± 2.52 nM
- IC50 [23]: 9.53 nM

Compound: CCCn1c(=O)[nH]c2nc(-c3ccc(S(=O)(=O)N4CCN(c5ccc(Cl)cc5)CC4)cc3)[nH]c2c1=O [PSB603]
- Effect on NECA-induced Ca2+ increase [24]: completely blocked
- Effect on native A2BAR (NECA)-triggered calcium mobilization [9]: completely inhibited
